Measurements: patent US12285012B2, “Compositions comprising pyridine carboxylate herbicides with acetolactate synthase (ALS) inhibitor herbicides” (Corteva Agriscience LLC, priority 2018, dated 2025)
Several values for one entry are separate records, joined by “and”; a condition that tells them apart may be missing. Equal entries are not always repeated.

Legend:
Assay in all cases: Greenhouse postemergence herbicidal effect
Assay type in all cases: in vivo
[1] = system: spring rape (BRSNN, Brassica napus)
In short: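 Injury was rated visually after 20-22 d on a 0 (none) to 100% (complete kill) scale relative to solvent-sprayed controls, with sub-irrigation to avoid wash-off. Rates were given in g ae/ha or g ai/ha depending on component.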

[2] = system: Italian ryegrass (LOLMU, Lolium multiflorum); details: Compound A 10 g/ha; safener mefenpyr-diethyl
In short: (§1)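 Plants at second or third true leaf stage, greenhouse-grown (~14 h photoperiod, about 23/22° C), sprayed at 187 L/ha with pyridine carboxylate herbicide (g ae/ha; with cloquintocet-mexyl safener unless noted) alone or plus ALS herbicide (g ai/ha) in 1.25% v/v oil adjuvant. Visual injury, 0 to 100% versus solvent-blank controls, after 20-22 d.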

[3] = system: blackgrass (ALOMY, Alopecurus myosuroides); details: Compound A 10 g/ha; safener mefenpyr-diethyl
In short: as §1

[4] = system: giant foxtail (SETFA, Setaria faberi)
In short: as §1

[5] = system: grain sorghum (SORVU, Sorghum vulgare); details: Compound A 10 g/ha
In short: as §1

[6] = system: poinsettia (EPHHL, Euphorbia heterophylla)
In short: as §1

[7] = system: small-flower flatsedge (CYPDI, Cyperus difformis); details: Compound A 10 g/ha
In short: as §1

[8] = Compound A 10 g/ha, safener mefenpyr-diethyl

N#CCOC(=O)c1nc(-c2ccc3cc[nH]c3c2F)c(F)c(N)c1Cl [Compound A, cyanomethyl 4-amino-3-chloro-5-fluoro-6-(7-fluoro-1H-indol-6-yl)pyridine-2-carboxylate]
% visual injury, Obs ([1]; 10 g/ha): 73% and 70% and 60%
% visual injury, Obs ([1]; BRSNN, Compound A 10 g/ha): 60%
Obs % visual injury ([1]; BRSNN, Compound A 10 g/ha): 55%
Obs % visual injury ([1]; BRSNN, Compound A 10 g/ha (Table 65)): 55%
% visual injury ([1]; Compound A 10 g/ha): 65%
% visual injury Obs ([1]; Compound A 10 g/ha): 60%
% visual injury, Obs ([1]; Compound A 10 g/ha): 55%
BRSNN % visual injury Obs ([1]; Compound A 10 g/ha (Examples 62-63)): 55%
% visual injury, Obs [1, 8]: 78%
BRSNN % visual injury Obs [1, 8]: 78%
% visual injury, Obs [2]: 10%
LOLMU % visual injury Obs [2]: 10%
% visual injury, Obs [3]: 13%
ALOMY % visual injury Obs [3]: 13%
% visual injury, Obs ([4]; 10 g/ha): 0%
% visual injury, Obs [4, 8]: 80%
SETFA % visual injury Obs [4, 8]: 80%
% visual injury [5]: 0%
% visual injury, Obs ([5]; safener mefenpyr-diethyl): 10%
SORVU % visual injury Obs ([5]; safener mefenpyr-diethyl): 10%
% visual injury, Obs ([6]; 10 g/ha): 83%
% visual injury ([6]; Compound A 10 g/ha): 97%
% visual injury Obs [7]: 72%
